Measurements as given in patent publication US5010097A, “Novel compounds” (Beecham Pharmaceuticals, priority 1987, dated 1991).

Target: T1, human collagenase (human lung fibroblast cell line WI-38) (Homo sapiens, UniProt P03956)
T1 construct: purified from culture supernatants from the human lung fibroblast cell line, WI-38; endogenous in cells; host or cells: WI-38 human lung fibroblasts (enzyme purified from culture supernatants)
T1 sequence (P03956 100-469): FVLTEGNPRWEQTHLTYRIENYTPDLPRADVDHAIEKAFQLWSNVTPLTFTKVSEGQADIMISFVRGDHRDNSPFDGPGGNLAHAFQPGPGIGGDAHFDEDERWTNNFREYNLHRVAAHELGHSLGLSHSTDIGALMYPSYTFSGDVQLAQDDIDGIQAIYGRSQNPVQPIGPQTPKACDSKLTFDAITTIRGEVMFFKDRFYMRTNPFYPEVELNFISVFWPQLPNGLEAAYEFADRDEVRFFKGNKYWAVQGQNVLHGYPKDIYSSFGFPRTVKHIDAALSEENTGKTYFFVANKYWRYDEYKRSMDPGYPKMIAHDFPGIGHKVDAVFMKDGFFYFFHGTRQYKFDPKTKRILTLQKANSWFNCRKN
Assay: Inhibition of Human Lung Fibroblast Collagenase (collagenase inhibitor assay, 14C-acetylated rat skin Type I collagen substrate)
Type: biochemical
Method: The test is performed essentially as in Cawston and Barrett Anal. Biochem. 99, 340-345 (1979). Compounds for testing are dissolved in methanol and added to purified human collagenase purified from culture supernatants from the human lung fibroblast cell line, WI-38, diluted in a suitable aqueous buffer. After a 5 min pre-incubation at 37° C., the assay tubes are cooled to 4° and ^14 C-acetylated rat skin Type I collagen is added. The assay tubes are incubated at 37° C. overnight. The ^14 C-collagen forms insoluble fibrils which are the substrate for the enzyme.
To terminate the assay, the assay tubes are spun at 12000 rpm for 25 min. Undigested ^14 C-collagen remains as insoluble fibrils and is pelleted, while digested ^14 C-collagen remains as soluble peptides in the supernatant. A sample of the supernatant is taken for liquid scintillation counting.
The activity of collagenase inhibitors (IC50 : 50% inhibitory concentration) is expressed as the concentration of compound that inhibits a known (standard) concentration of enzyme by 50%, or as the % inhibition of the collagen degradation caused by the known (standard) concentration of enzyme, at a stated concentration of the compound.

Compound: CNC(=O)[C@H](Cc1ccc(OC)cc1)NC(=O)C(CC(C)C)C(S)CC(C)=O (single isomer, unassigned) [2 A]
- IC50 (purified human collagenase from WI-38 culture supernatants, 14C-collagen fibrils, 5 min pre-incubation at 37 °C, then 37 °C overnight): 14 nM

Compound: CNC(=O)[C@H](Cc1ccc(OC)cc1)NC(=O)C(CC(C)C)C(S)CC(C)=O (some centres unmarked) [2 C/D]
- Inhibition (% inhibition of the collagen degradation) (at 1000 (column head nm), purified human collagenase from WI-38, 37 °C overnight): 58%
